According to US11712457B2, “Syringa pubescens microphylla seed extract composition and its application in antibiotic-resistant infections” (SHAANXI UNIVERSITY OF SCIENCE AND TECHNOLOGY, priority 2020, dated 2023):

Assays:
Assay in all cases: Paper diffusion drug sensitivity test (zone of inhibition)
Type in all cases: cell-based
[1] = tested on: Staphylococcus aureus (SAU); settings: LB agar, 37° C., 24 h, control drugs 30 μg/tablet, extract 128 μg/tablet, ≥17 mm sensitive, 15-16 mm intermediate, ≤14 mm resistant
Method: (§1) The bacteriostatic activity test experiment was carried out on the Syringa pubescens microphylla extract of the present invention, and the bacteriostatic effect was determined by a paper diffusion drug sensitivity method.
(§2) Experimental strains: Staphylococcus aureus (SAU), multi-drug resistant Staphylococcus aureus 18-206, multi-drug resistant Pseudomonas aeruginosa 18-261. The experimental strains were provided by Huashan Hospital, Fudan University (Institute of Antibiotics, Fudan University).
(§3) Drug sensitive paper: The drug sensitive paper is a special drug sensitive paper with a diameter of 6.35 mm and a water absorption of 0.02 mL. The control drugs were cefazolin sodium (30 μg/tablet), vancomycin (30 μg/tablet) and gentamicin (30 μg/tablet); the test drug was the Syringa pubescens microphylla extract (128 μg/tablet).
(§4) The experimental strains were inoculated in a non-selective medium and incubated in air at 37 C for 24 hours. A single colony was selected and inoculated into a broth medium, and incubated at 35±2° C. for 6 hours. LA broth medium was used to correct the concentration of the bacterial solution to 1.5×10^8 CFU/mL to obtain a bacterial suspension.
(§5) Weighing LB dry powder, autoclaving at 103.4 Kpa, 121.3° C. for 15 min, then placing in a 40° C.-50° C. water bath. Sterile empty plates (with an inner diameter of 9 cm) were placed on a water platform of the ultra-clean table. LB solution was poured to the plates, with agar thickness of 3 mm-4 mm. After the plates were cooled at room temperature, they were stored in a refrigerator at 2° C. to 8° C. Bacteria liquid was spread evenly with a sterile cotton swab on the surface of the LB plate 3 times. The LB plate was dried at room temperature for 3 min to 5 min. An antibacterial drug paper sheet was placed in the plate using sterile tweezers. The plates were placed in a 37° C. incubator for 24 h. The diameter of inhibition zone was measured. 0.5% DMSO solution was used as the negative control. The diameter of inhibition zone was to measure the antibacterial activity. Inhibition zone≥17 mm, sensitive; inhibition zone=15 mm-16 mm, intermediate; inhibition zone≤14 mm, resistant.

[2] = tested on: multi-drug resistant Pseudomonas aeruginosa 18-261; settings: strain 18-261; LB agar, 37° C., 24 h; control drugs 30 μg/tablet, extract 128 μg/tablet; ≥17 mm sensitive, 15-16 mm intermediate, ≤14 mm resistant
Method: as §1, §2, §3, §4, §5

[3] = tested on: multi-drug resistant Staphylococcus aureus 18-171; settings: strain 18-171; LB agar, 37° C., 24 h; control drugs 30 μg/tablet, extract 128 μg/tablet; ≥17 mm sensitive, 15-16 mm intermediate, ≤14 mm resistant

Compound | Diameter of Inhibition Zone [1] [mm] | Diameter of Inhibition Zone [2] [mm] | Diameter of Inhibition Zone [3] [mm]
Cc1nnc(SCC2=C(C(=O)O)N3C(=O)[C@@H](NC(=O)Cn4cnnn4)[C@H]3SC2)s1 [cefazolin sodium] | 10 | 0 | 0
CN[C@H](CC(C)C)C(=O)N[C@H]1C(=O)N[C@@H](CC(N)=O)C(=O)N[C@H]2C(=O)N[C@H]3C(=O)N[C@H](C(=O)N[C@H](C(=O)O)c4cc(O)cc(O)c4-c4cc3ccc4O)[C@H](O)c3ccc(c(Cl)c3)Oc3cc2cc(c3O[C@@H]2O[C@H](CO)[C@@H](O)[C@H](O)[C@H]2O[C@H]2C[C@](C)(N)[C@H](O)[C@H](C)O2)Oc2ccc(cc2Cl)[C@H]1O [vancomycin] | 23 |  | 17
gentamicin | 18 | 17 | 16
